Article PMC9002393, “Phytochemical Study of Eryngium cymosum F. Delaroche and the Inhibitory Capacity of Its Main Compounds on Two Glucose-Producing Pathway Enzymes” (Plants, 2022)

Key:
[1] = target: T1, glucose-6-phosphatase (G6Pase) (Rattus norvegicus, UniProt P43428); test: Inhibition assay of glucose-6-phosphatase (G6Pase); type: biochemical; details: rat liver microsomal fractions
T1 sequence (P43428 1-357): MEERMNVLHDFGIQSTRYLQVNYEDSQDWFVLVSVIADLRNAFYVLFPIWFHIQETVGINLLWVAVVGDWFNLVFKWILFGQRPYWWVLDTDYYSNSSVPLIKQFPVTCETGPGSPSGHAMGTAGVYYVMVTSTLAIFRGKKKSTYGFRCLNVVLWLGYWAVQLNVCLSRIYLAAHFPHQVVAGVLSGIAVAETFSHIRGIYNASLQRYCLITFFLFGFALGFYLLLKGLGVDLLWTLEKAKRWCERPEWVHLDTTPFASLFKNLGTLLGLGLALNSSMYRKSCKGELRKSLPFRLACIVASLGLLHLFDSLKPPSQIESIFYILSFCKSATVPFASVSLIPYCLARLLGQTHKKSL
Experimental: Rat liver microsomal fractions isolated through differential centrifugation were diluted 1:1 in buffer (40 mM imidazole, 250 mM sucrose, pH 7) and added to reaction mixtures, containing buffer and different concentrations of inhibitor samples (chlorogenic acid or compounds). Enzymatic activity started by adding 20 mM of glucose-6-phosphate (G6P). Next, the mixtures were incubated at 22 °C for 20 min and ended with the addition of 900 μL of a solution of 0.42% ammonium molybdate in 1 N H2SO4, 10% SDS, and 10% ascorbic acid. Finally, they were incubated at 45 °C for 20 min and measured at 830 nm.

[2] = target: T2, fructose-1,6-bisphosphatase (FBPase) (Rattus norvegicus, UniProt P19112); test: Inhibition assay of fructose-1,6-bisphosphatase (FBPase); type: biochemical; details: rat liver cytosolic supernatant; for IC50: mean ± SEM of two assays in duplicate
T2 construct: Enzymatic activity started by adding rat liver cytosolic supernatant diluted 9:1; from tissue; host or cells: rat liver cytosolic supernatant
T2 sequence (P19112 2-363 limits assumed): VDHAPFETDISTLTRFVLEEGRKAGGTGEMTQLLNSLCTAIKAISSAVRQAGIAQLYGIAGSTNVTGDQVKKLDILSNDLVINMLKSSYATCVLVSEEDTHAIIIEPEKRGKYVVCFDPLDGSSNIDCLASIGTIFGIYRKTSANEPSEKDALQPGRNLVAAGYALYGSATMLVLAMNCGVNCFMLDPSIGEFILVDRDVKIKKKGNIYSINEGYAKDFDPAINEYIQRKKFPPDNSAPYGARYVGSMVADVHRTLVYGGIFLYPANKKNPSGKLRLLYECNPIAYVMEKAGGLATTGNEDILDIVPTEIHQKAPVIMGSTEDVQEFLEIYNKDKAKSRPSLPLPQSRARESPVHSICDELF
Experimental: Buffer (5 μM EDTA, 5 mM MgCl2, 50 mM Tris-HCl, pH 7.2) enriched with 0.1 mM of fructose-1,6-bisphosphate was added and incubated for 5 min with different concentrations of inhibitor or samples (adenosine 5′-monophosphate or compounds) in reaction mixtures of 1 mL. Enzymatic activity started by adding rat liver cytosolic supernatant diluted 9:1 and, 15 min later, ended with the addition of a color reagent previously prepared by mixing 1 volume of 7.5% ammonium molybdate and 0.17% TWEEN 20 with 4 volumes of stock solution (0.12% malachite green in 5 volumes of water with 1 volume of H2SO4). Finally, the reaction mixtures were incubated for 10 min at room temperature and measured at 630 nm.

ALR-1 = system: ALR-1; set-up: method as in earlier work; details: read-out: ALR1 IC50; cited from earlier work
[3] = system: STZ-induced diabetic rats; set-up: method as in PMID 20506690; details: oral administration for 45 days, 100 mg/kg bw; cited from earlier work
α-amylase = target: α-amylase; set-up: method as in PMID 24825096; details: cited from earlier work
α-glucosidase = target: α-glucosidase; set-up: method as in PMID 24825096; details: cited from earlier work
db/db mouse = system: db/db mouse; set-up: method as in PMID 16644902; details: treated for 5 weeks; cited from earlier work
[4] = system: STZ-induced diabetic rats; set-up: method as in PMID 21433280; details: 4 days of ad libitum consumption; cited from earlier work
[5] = system: high-fat diet model-STZ-induced rats; set-up: method as in doi:10.1016/j.bionut.2014.03.006; details: consumption for 30 days; cited from earlier work
ALR-2 = system: ALR-2; set-up: method as in earlier work; details: read-out: ALR2 IC50; cited from earlier work

## O=C(/C=C/c1ccc(O)cc1)OC[C@H]1O[C@@H](Oc2c(-c3ccc(O)cc3)oc3cc(O)cc(O)c3c2=O)[C@H](OC(=O)/C=C/c2ccc(O)cc2)[C@@H](O)[C@@H]1O [kaempferol-3-O-(2,6-di-O-trans-ρ-coumaryl)-β-D-glucopyranoside]
[1]
  inhibition over G6Pase (in words): important inhibition
[2]
  inhibition over FBPase (in words): important inhibition
  IC50: 70.9 µM

## CCCC(CCC)C(=O)O [valproic acid]
ALR-1
  IC50: 57.4 ± 0.89 µM

## O=C(O)c1ccc(O)c(O)c1 [protocatechuic acid (3), protocatechuic acid]
[3]
  plasma glucose: decrease in plasma glucose
  plasma insulin: increase in plasma insulin

## Nc1ncnc2c1ncn2[C@@H]1O[C@H](COP(=O)(O)O)[C@@H](O)[C@H]1O [Adenosine 5′-monophosphate, reference compound]
[2]
  IC50: 48.7 µM

## O=C(O)/C=C/c1ccc(O)c(O)c1 [Caffeic acid (4), caffeic acid]
[1]
  inhibition over G6Pase (in words): modest inhibition
[2]
  inhibition over FBPase (in words): no inhibition
α-amylase
  α-amylase IC50: 3.68 µg/mL
α-glucosidase
  α-glucosidase IC50: 4.98 µg/mL
db/db mouse
  blood insulin levels: blood insulin levels increased
  plasma glucose levels: plasma glucose levels decreased

## O=C(/C=C/c1ccc(O)c(O)c1)O[C@H](Cc1ccc(O)c(O)c1)C(=O)O [rosmarinic acid (2), rosmarinic acid]
[4]
  blood glucose levels: blood glucose levels were decreased
[5]
  blood glucose levels: decrease in blood glucose levels
  plasma insulin: increase in plasma insulin

## O=C1NC(=O)[C@@]2(CCOc3ccc(F)cc32)N1 [sorbinil]
ALR-2
  IC50: 3.14 ± 0.02 µM
